The source of these data is US10179770B2, “Quinolines derivatives as novel anticancer agents” (GENOSCIENCE PHARMA, priority 2013, dated 2019).

Broadly, the EC50 is the concentration needed to bring the measured effect to its halfway point. Read a high EC50 as a less potent agent.

The subject of series [1] is BxPC-3. Briefly: Cell viability assay, pancreatic cancer cell lines. In kind it is cell-based. The following applies: Homo sapiens; BxPC-3 (Pancreas); 48 h. On the procedure: MiaPaCa-2, Panc-1 cells were grown in Dulbecco's modified eagle's medium (DMEM) (Gibco) supplemented with 10% fetal bovine serum (FBS), while BxPC-3, Capan-1, Capan-2 cells were grown in Roswell Park Memorial Institute 1640 (RPMI 1640) (Gibco) supplemented with 10% FBS. Gemcitabine (Gemzar) was purchased from Lilly France S.A.S (Suresnes, France). (3-(4,5-dimethylthiazol-2-yl)-2,5diphenyltetrazolium bromide, MTT) was purchased from Sigma-Aldrich.
BxPC-3, MiaPaCa-2, Panc-1 cells were seeded into a 96-well plate at 10,000 10,000 15,000 cells per well respectively, while Capan-1 and Capan-2 cells at 20,000 cells per well and allowed to adhere overnight. Then the culture medium was removed and replaced with fresh media alone as control or containing various concentrations of different compounds. In dose-dependent assay, the cells were treated with compound XIX-3 at the concentration varying from 0.1 μM to 100 μM while the cells being cultured by fresh media alone were used as control. After 48 h treatment, the number of remained viable cells was determined by (3-(4,5-dimethylthiazol-2-yl)-2,5diphenyltetrazolium bromide, MTT) colorimetric assay (see Sigma Aldrich protocol and Riss T. L. et al. Cell Viability Assays in Assay Guidance Manual 2013 ppl.). All experiments were done in duplicate and repeated two independent times.

Series [2] relates to HepG2. Kind of series: CellTiter-Glo cell viability assay (example 57). In kind it is cell-based. The following applies: Homo sapiens; HepG2 (Liver); Cell Titer-Glo; 72 h. On the procedure: (§1) The human breast cancer cell line SkBr3 and the human metastatic prostate carcinoma cell line LnCAP were cultured in Dulbecco's modified Eagle's medium (DMEM) supplemented with 10% fetal bovine serum (FBS) and 0.1% sodium pyruvate. The human myelocytic cell line U937 and NB4 were maintained in RPMI medium 1640 1× (Gibco 21875-034) supplemented with 10 % Fetal Bovine Serum (FBS, Eurobio S39130-0808) Kasumi and SKM-1 were maintained in RPMI medium 1640 1× (Gibco 21875-034) supplemented with 20 % Fetal Bovine Serum (FBS, Eurobio S39130-0808), HL60 was maintained in Iscove's modified Dulbecco's medium 1× (IMDM, Gibco 21890) supplemented with 20% Fetal Bovine Serum (FBS, Eurobio S39130-0808), cell line was maintained in MEM alpha medium (Gibco 22561-021) supplemented with 10% FBS at 37° C. with 5% CO2. Cell outgrowth was measured using the CellTiter-Glo luminescent cell viability assay as described by the manufacturer (Promega, Ref G7571 Madison, Wis., USA) using a FLUOstar optima luminometer (BMG Labtech, Ortenberg, Germany).
(§2) Briefly, for adherent cells, 10^4 cells were plated onto 96-well plates (white with clear bottom (3610, Corning Costar) in 100 μL of media per well and were allowed to grow overnight before the assay. For cells growing in suspension, 10^4 cells were plated onto 96-well plates immediately before the assay. […] Vehicle (DMSO) was used as a control, and all compounds were tested in a constant percentage of DMSO (1%). After addition of 50 μL of CellTiter GLO, luminescence was measured using a Centro luminometer (Berthold). EC50 values were determined as the dose of compound required to reduce luminescent values to 50% of the signal obtained for untreated cell cultures. All experiments were done in duplicate and repeated two independent times.
On the technique in general: Cellular ATP, detected with luciferase, serves as a proxy for viable cell number.

Series [3] has as its system LNCaP. Briefly: CellTiter-Glo cell viability assay (example 57). In kind it is cell-based. The following applies: Homo sapiens; LNCaP (Prostate); Cell Titer-Glo; 72 h. How it is done:
as §1, §2

Series [4] relates to SkBr3. Kind of series: CellTiter-Glo cell viability assay (example 57). Type of series: cell-based. The following applies: Homo sapiens, SK-BR-3; SkBr3 (Breast); Cell Titer-Glo; 72 h. On the procedure: as §1, §2
In series [5] the test system is HT29. Briefly: CellTiter-Glo cell viability assay (example 57). In kind it is cell-based. The following applies: Homo sapiens, HT-29; HT29 (Colon); Cell Titer-Glo; 72 h.
A short description of series [6]: Encapsulation efficiency of XIX-2 in PLGA-PLGAPEG nanoparticules (HPLC). Type of series: physicochemical. How it is done: According to the general procedure described elsewhere (see for example Kumar, K. et al. J. Controlled Release 2013 (171) pp 208-215 and Danhier, F. et al. Int. J. Pharm. 2010 (392) pp 20-28) a nanoparticule PLGA-PLGAPEG (70/30, w/w) formulation of compound XIX-2 was prepared. Briefly, XIX-2 loaded PLGA (L:G 50:50, Mw 7,000-17,000, acid terminated) and PLGA-PEG (L:G 50:50, 15% of PEG, PLGA Mw 28,000; PEG Mw 5,000) nanoparticles were prepared by O/W emulsion-solvent evaporation technique. 35 mg of PLGA polymer and 15 mg of PLGA-PEG polymer was dissolved in 1 ml of a solution of XIX-2 in dichloromethane (10 mg/ml) and vortexed to obtain a uniform PLGA-PLGAPEG solution. Then, 2 ml of a 1% sodium cholate aqueous solution was added and the resulting biphasic system was sonicated (Branson sonifier, USA) at 70 W for 15 s. This emulsion was added dropwise to 100 ml of a 1% sodium cholate aqueous solution at 37° C. and stirred at 600 rpm for 1 h. The nanoparticle suspension was then washed twice in distilled water by centrifugation (Avanti-JE centrifuge, Beckman coulter, USA) for 60 min at 10,000 t·min^−1 and 4° C. Supernatants were collected to evaluate encapsulation efficiency of XIX-2. Empty nanoparticles were prepared with the same procedure except the addition of XIX-2 during the preparation of the formulation. The particles can be stored in solution at +4° C. or then freeze dried (Labconco, USA) and stored at 4° C. until further use.
Encapsulation efficiency estimated the amount of XIX-2 encapsulated in PLGA-PLGAPEG nanoparticules. Supernatants were used to measure the non-encapsulated XIX-2. Nanoparticules were dissolved in 1 ml of mobile phase to evaluate the encapsulated XIX-2. An HPLC system (Waters Breeze) with a diode array detector and multiple wavelength detector was used for the quantification of XIX-2 in supernatants and nanoparticles. […]
The coefficients of variation (CV) for intra- and inter-assay measurements were within 5%. The encapsulation efficiency of XIX-2 is given by [XIX-2 used−XIX-2 non-encapsulated)/XIX-2 used]×100 and XIX-2 recovery was calculated.

Take `Nc1ccn([C@@H]2O[C@H](CO)[C@@H](O)C2(F)F)c(=O)n1` [Gemcitabine, gemcitabine]: the EC50 amounted to 20 nM in series [1]; 20 nM in series [2]; 40 nM in series [3]; 200 nM in series [4]; 200 nM in series [5].

As for `CCN(CC)C1CCN(C(C)c2cc(-c3ccccc3)nc3ccccc23)CC1` (centres unmarked) [XIX-2, 2-phenyl-4-{1-[4-(N,N-diethylamino)-piperidin-1-yl]-eth-1-yl}quinoline], in series [6] (PLGA-PLGAPEG (70/30, w/w) nanoparticules, HPLC), the “Concentration of XIX-2 in nanoparticules dispersion” value worked out at 3210 µM. This compound also displayed a Loading in series [6] (PLGA-PLGAPEG nanoparticules, [XIX-2 encapsulated/PLGA-PLGAPEG used] × 100) of 2.5%. In series [6] (PLGA-PLGAPEG nanoparticules; [XIX-2 used − XIX-2 nonencapsulated)/XIX-2 used] × 100), the Encapsulation efficiency is listed as 9.4%.
